Laboratory results: patent US12529066B2, “Plants having increased tolerance to herbicides” (BASF AGRO B.V., priority 2012, dated 2026)

Key:
[1] = system: Chlamydomonas reinhardtii; test: Dose-response curves of Chlamydomonas reinhardtii wild-type and mutagenized cells (strain 17); conditions: mutagenized cells (strain 17) versus wild-type cells
[2] = system: Chlamydomonas reinhardtii; test: Selection of Chlamydomonas reinhardtii strains on solid medium containing herbicide; assay type: cell-based; conditions: solid medium containing 1×10^−7 M

C#CCN1C(=O)C(F)(F)Oc2cc(F)c(-n3c(=O)n(C)c(=S)n(C)c3=O)cc21 [I.a.35]
IC50 of strain 17 compared to Wild-type cells [1]: much lower IC50
growth of resistant mutagenized cells on solid medium ([2]; resistant cells (colonies 31 and 32)): form colonies
growth of susceptible mutagenized cells on solid medium ([2]; susceptible cells): do not grow
